According to patent US9846160B2, “Ganglioside GD2 as a marker and target on cancer stem cells” (Board of Regents, The University of Texas System, priority 2012, dated 2017):
Entries after “also recorded” stand apart in the source; their conditions may differ.

Tests used:
GD3S = settings: melanoma cancer cell line; cited from earlier work
MDA-MB-231 cells [1] = experiment: Tumor growth inhibition and survival, MDA-MB-231 xenografts; format: in vivo, NOD/SCID mice; settings: for tumor growth compared to control mice: after 4 weeks; for reduction in tumor volume: in 25% of mice, 0.15 mg/kg/day
Experimental: MDA-MB-231 cells (A) or SUM159 cells (B) (5×10^5/well) of 6 well cell culture dish was treated with 25 nM or 50 nM or 75 nM or 100 nM or 125 nM concentration of Triptolide for 24 hrs. Total RNA was extracted and GD3S expression was measured by real-time RT-PCR. (C) To measure GD2^+ cells growth inhibition, 5×10^5 MDA-MB-231 cells were plated in each well of 6 well cell culture dish and treated with 25 nM or 50 nM or 75 nM or 100 nM or 125 nM concentration of Triptolide for 48 hrs or 72 hrs. After incubation, the cells were detached with trypsin and stained with anti-GD2 antibody and Sytox-Red (for dead cells). The stained cells were analyzed on LSR-II flow cytometer. Absolute number of live cells were calculated by measuring 1000 events for True Count® beads as explained methods. (D) To determine the inhibition of tumor growth, 1×10^6 MDA-MB-231 cells were subcutaneously transplanted into NOD/SCID mice (n=8, 4 mice/group). A group of the mice were treated with 0.15 mg/kg/day of triptolide and the control group was treated with PBS everyday by intra peritoneal injections. At the end of 8 weeks, mice were sacrificed, tumors were dissected out and photographed. (E) Tumors sizes from the mice in experiment in FIG. 6D were measured every week after tumor engraftment and the measurements were shown in a line graph. (F) The survival analysis was based on Kaplan-Myer estimation and groups were compared by the log-rank test. Control (n=4, black line) and Triptolide (n=4, blue line), were analyzed for cumulative survival. Survival was defined as the time (in weeks) from transplant until death. P value represents the statistical significance.
For mRNA analysis 5×10^5 MDA-MB-231 or SUM159 breast cancer cell lines were incubated with triptolide (Alexis Biochemicals, San Diego, Calif.) at 25, 50, 75, 100 and 125 nM concentrations for 24 hrs at 37° C. in six-well cell culture dishes. For the growth inhibition studies, 3×10^5 MDA-MB-231 cells cultured in a 6 well tissue culture dishes were treated with triptolide at specified concentrations for either 24 hrs or 48 hrs. After incubation the cells were detached using trypsin and stained with anti-GD2 antibody (by indirect staining protocol) and pacific-blue conjugated Annexin-V (Invitrogen, Carlsbad, Calif.) following the manufactures instructions. The cells were analyzed in LSR-II flow cytometer (BD). The absolute number of cells were counted by measuring True Count® counting beads (Invitrogen) as per manufacturer's instructions. To examine tumor growth inhibition, survival of murine tumor xenografts was determined by subcutaneous administration of 1×10^6 MDA-MB-231 cells into 8-10 week old NOD/SCID mice. After growing for 2 weeks tumor xenografts reached a size of ˜50 mm^3 Thereafter, Triptolide (0.15 mg/Kg/day) was administered IP into the mice on a daily basis. The mice were sacrificed when the control tumors reached 2 cm or higher following institutional guidelines.
After the tumors reached 50 mm^3, the mice were randomly divided into two groups, and half of the mice treated with triptolide (0.15 mg/kg/day) while the other half were treated with PBS (control mice) every day by intraperitoneal injections. […] Fifty percent of triptolide treated breast tumors were completely tumor free and there was reduction in tumor volume by >8-fold in 25% of mice (FIG. 6D). In addition, tumors in triptolide treated mice were 3-fold smaller in size and 4-fold lighter by weight (FIG. 6E, FIG. 16). […] These findings indicate that […] plays a major role in regulating […] expression and the resulting GD2^+ population. Specifically, it affects cell proliferation and tumor initiation of GD2^+ breast cancer cells and when inhibited, greatly diminishes tumor growth and increases metastasis free survival of breast cancer bearing mice.

GD3S mRNA expression [2] = experiment: GD3S mRNA expression by real-time RT-PCR in SUM159 cells; format: cell-based, Human; settings: Sum159, 125 nM, 24 hr, dose dependent
Experimental: (§1) MDA-MB-231 cells (A) or SUM159 cells (B) (5×10^5/well) of 6 well cell culture dish was treated with 25 nM or 50 nM or 75 nM or 100 nM or 125 nM concentration of Triptolide for 24 hrs. Total RNA was extracted and GD3S expression was measured by real-time RT-PCR. (C) To measure GD2^+ cells growth inhibition, 5×10^5 MDA-MB-231 cells were plated in each well of 6 well cell culture dish and treated with 25 nM or 50 nM or 75 nM or 100 nM or 125 nM concentration of Triptolide for 48 hrs or 72 hrs. After incubation, the cells were detached with trypsin and stained with anti-GD2 antibody and Sytox-Red (for dead cells). The stained cells were analyzed on LSR-II flow cytometer. Absolute number of live cells were calculated by measuring 1000 events for True Count® beads as explained methods. […] (E) Tumors sizes from the mice in experiment in FIG. 6D were measured every week after tumor engraftment and the measurements were shown in a line graph. […] Control (n=4, black line) and Triptolide (n=4, blue line), were analyzed for cumulative survival. […]
(§2) For mRNA analysis 5×10^5 MDA-MB-231 or SUM159 breast cancer cell lines were incubated with triptolide (Alexis Biochemicals, San Diego, Calif.) at 25, 50, 75, 100 and 125 nM concentrations for 24 hrs at 37° C. in six-well cell culture dishes. […] The cells were analyzed in LSR-II flow cytometer (BD). […]

GD3S mRNA expression [3] = experiment: GD3S mRNA expression by real-time RT-PCR in MDA-MB-231 cells; format: cell-based, Human
Experimental: as §1, §2

MDA-MB-231 cells [4] = experiment: GD2+ cell growth inhibition / apoptosis by flow cytometry after triptolide; format: cell-based, Human
Experimental: as §1, §2

[5] = 0.15 mg/kg/day intraperitoneal, listed as triptolide

For `CC(C)[C@]12O[C@H]1[C@@H]1O[C@]13[C@]1(O[C@H]1C[C@H]1C4=C(CC[C@@]13C)C(=O)OC4)[C@@H]2O` [Triptolide], the “inhibition of GD3S” value (GD3S) is listed as “has been shown to inhibit GD3S”, the “treated breast tumors completely tumor free” value (MDA-MB-231 cells [1]; 0.15 mg/kg/day intraperitoneal) is listed as “Fifty” and the “tumors lighter by weight vs control” value (MDA-MB-231 cells [1]; 0.15 mg/kg/day intraperitoneal) is listed as 4 fold. For the same compound, the “tumors smaller in size vs control” value (MDA-MB-231 cells [1]; 0.15 mg/kg/day intraperitoneal) was 3 fold, the “tumor growth compared to control mice” value (MDA-MB-231 cells [1]; 0.15 mg/kg/day intraperitoneal) was “blocks tumor growth” and the “tumor growth compared to control mice” value (MDA-MB-231 cells [1]; [5]) was “dramatic decrease in tumor growth”. For the same compound, the tumor mass (MDA-MB-231 cells [1]; FIG. 16, p<0.01) was “reduces tumor mass”, the “reduction in tumor volume” value (MDA-MB-231 cells [1]; 0.15 mg/kg/day intraperitoneal) was 7- to 8 fold and the “reduction in tumor volume” value (MDA-MB-231 cells [1]; [5]) was > 8 fold. The “mice in which tumors were eliminated” value (MDA-MB-231 cells [1]; intra-peritoneal administration) was 50%, the “survival of treated mice” value (MDA-MB-231 cells [1]; repeat experiment, Log-rank control vs triptolide p=0.0015) was “significantly prolonged survival” and the “inhibition of GD3S mRNA expression” value (GD3S mRNA expression [2]) was > 95%. The “inhibition of GD3S mRNA expression” value (GD3S mRNA expression [3]; MDA-MB-231, 125 nM, 24 hr, dose dependent) was > 95%, the “inhibition of GD3S expression” value (GD3S mRNA expression [3]; breast cancer cells, dose dependent manner (summary)) was > 95% and the “decrease of GD2+ cells (absolute cell counts)” value (MDA-MB-231 cells [4]; MDA-MB-231, different concentrations, 24 or 48 hours) was “dose dependent and time dependent decrease of GD2^+ cells”. For the same compound, the induction of apoptosis (MDA-MB-231 cells [4]; breast cancer cells / MDA-MB-231) was “induce apoptosis in MDA-MB-231 cells; also recorded: induced apoptosis in a time dependent manner”.
